Entries after “also recorded” stand apart in the source; their conditions may differ. Where a SMILES comes first, the peptide text is derived from it. The star is where a group is joined. Cbz = O=C(OCc1ccccc1)*

The text below walks through data of patent publication US12117455B2, “Early detection marker for degenerative osteoarthritis with TRIM24-RIP3 axis” (AJOU UNIVERSITY INDUSTRY-ACADEMIC COOPERATION FOUNDATION, priority 2020, dated 2024).

One series deals with chondrocytes. Briefly: Cell viability / cytotoxicity by LDH assay in chondrocytes. Type of series: cell-based, mouse. The settings on record: for cytotoxic effects on chondrocytes (LDH release assay, Western blotting, phase-contrast microscopy): chondrocytes infected with Ad-C or Ad-Rip3. The procedure: Mouse articular chondrocytes were isolated from the cartilage of ICR mice on the 5th day after birth, enzymatically digested with protease and collagenase, and then maintained in DMEM (Capricorn Scientific GmbH: Hessen, Germany) supplemented with 10% FBS, 100 units/mL penicillin and 100 μg/mL streptomycin. On the 3rd day, cells (4.25×10^5 cells/well) were infected with adenovirus or treated with recombinant protein. Mlkl+/+ and Mlkl−/− MEFs were maintained in DMEM supplemented with 10% FBS and penicillin-streptomycin. Cell viability was assessed using a lactate dehydrogenase (LDH) colorimetric assay kit (Bio Vision (Milpitas, CA, USA)). Chondrocytes were dispensed into a 96-well dish (1.5×10^4 cells/well), cultured for 24 hours (5% CO2, 37° C.), and treated with various concentrations of AZ-628, selumetinib, and neratinib for 24 hours. The supernatant was analyzed using a microplate reader at 495 nm. Untreated (100% viable) and Triton X-100 treated (0% viable) samples were used for normalization. The viability was calculated as follows.

The target in the next series is T1, RIP3 (Mus musculus, UniProt Q9QZL0).
T1 construct: host or cells: primary mouse articular chondrocytes (ICR mice), adenoviral infection
Nature of the series: RIP3 kinase activity / RIP3 phosphorylation by Western blotting in Ad-Rip3-infected chondrocytes. Type of series: cell-based. To be noted: RIP3-overexpressing chondrocytes. As to the method: (§1) Mouse articular chondrocytes were isolated from the cartilage of ICR mice on the 5th day after birth, enzymatically digested with protease and collagenase, and then maintained in DMEM (Capricorn Scientific GmbH: Hessen, Germany) supplemented with 10% FBS, 100 units/mL penicillin and 100 μg/mL streptomycin. On the 3rd day, cells (4.25×10^5 cells/well) were infected with adenovirus or treated with recombinant protein. Mlkl+/+ and Mlkl−/− MEFs were maintained in DMEM supplemented with 10% FBS and penicillin-streptomycin.
(§2) Cells were lysed in an M2 buffer, and mouse tissues were lysed in a lysis buffer containing 50 mM Tris-HCl (pH 7.5), 150 mM NaCl, 50 mM NaF, 1% Tween 20, 0.2% NP-40, and a protease inhibitor. Equal amounts of cell extracts were separated using SDS-PAGE (6% stacking gel and 10% running gel) and analyzed through immunoblotting.
(In general: Immunoblotting shows a protein as a band on a membrane.)

Series [1] relates to RIP3-overexpressing chondrocytes. Nature of the series: MMP3, MMP13 and COX2 expression (RT-PCR, qPCR, Western blotting) in Ad-Rip3-infected chondrocytes. Type of series: cell-based, mouse. As to the method: as §1, §2
Total RNA was extracted from articular chondrocytes using a TRIzol reagent (Molecular Research Center (Cincinnati, OH, USA)) and then reverse-transcribed into complementary DNA (cDNA) using ImProm-II™ Transcriptase (Promega (Madison, WI, USA)), followed by amplification through PCR or qPCR using the primers shown in Table 2 below. qPCR was performed using SYBR premix Ex Taq (TaKaRa Bio., Kusatsu, Shiga, Japan), and the results thereof were normalized to Gapdh and represented as fold changes compared to controls.
On the technique in general: Real-time PCR tracks product formation cycle by cycle.

Another series deals with MLKL. Briefly: MLKL protein levels in chondrocytes treated with proteasome or lysosome inhibitors (Western blotting). The class given is cell-based, mouse. To be noted: treatment for 6 hours. The procedure:
as §2

T1 sequence (Q9QZL0 whole entry): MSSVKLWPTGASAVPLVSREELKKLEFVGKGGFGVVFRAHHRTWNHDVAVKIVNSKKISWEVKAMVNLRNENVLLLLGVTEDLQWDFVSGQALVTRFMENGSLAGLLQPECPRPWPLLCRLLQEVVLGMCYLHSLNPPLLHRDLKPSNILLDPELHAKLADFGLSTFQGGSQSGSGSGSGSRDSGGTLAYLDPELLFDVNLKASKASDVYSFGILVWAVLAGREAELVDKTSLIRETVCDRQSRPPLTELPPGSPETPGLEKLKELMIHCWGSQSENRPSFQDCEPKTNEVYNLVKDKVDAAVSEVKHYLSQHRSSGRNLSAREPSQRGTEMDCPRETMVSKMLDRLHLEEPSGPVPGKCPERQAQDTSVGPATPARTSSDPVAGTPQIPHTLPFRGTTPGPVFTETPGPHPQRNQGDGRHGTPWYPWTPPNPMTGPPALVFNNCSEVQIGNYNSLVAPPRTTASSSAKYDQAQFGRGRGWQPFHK

As for `CC(C)S(=O)(=O)c1ccc2nccc(Nc3ccc4scnc4c3)c2c1` [GSK 872], in the series with chondrocytes, the “cytotoxic effects on chondrocytes (LDH release assay, Western blotting, phase-contrast microscopy)” value (“cytotoxic effects on chondrocytes” below) is “greater cytotoxic effects on chondrocytes than AZ-628”.
As for `Cc1ccc(NC(=O)c2cccc(C(C)(C)C#N)c2)cc1Nc1ccc2ncn(C)c(=O)c2c1` [AZ-628], the “cytotoxic effects in chondrocytes (LDH assay)” value with chondrocytes (at 2 μM, 24 hours) is given as “no toxicity”. Also, the “cytotoxic effects on chondrocytes” value in the series on chondrocytes is recorded as “without chondrocyte toxicity”. Also, the “RIP3 (kinase) activity” value on RIP3 was “potent RIP3 kinase inhibitor; also recorded: attenuates RIP3 kinase activity”. For the same molecule, the “inhibition of osteoarthritis manifestations in RIP3-overexpressing chondrocytes” value in series [1] (compared with selumetinib or neratinib) is given as “more effectively inhibited”. Besides, in series [1] (qPCR, RIP3-overexpressing chondrocytes treated with RIP3 kinase inhibitors), the “Mmp3 and Cox2 expression (osteoarthritis-related gene expression)” value was “decreased; also recorded: attenuated”.
With `CCN(CC)CCCC(C)Nc1ccnc2cc(Cl)ccc12` (stereo not drawn) [CQ, Chloroquine diphosphate], the MLKL protein levels result in the series on MLKL is on record as “did not change”.
Take `CC(C)C[C@@H](C=O)NC(=O)[C@H](CC(C)C)NC(=O)[C@H](CC(C)C)NC(=O)OCc1ccccc1` [MG132] (Cbz-Leu-Leu-Leu-aldehyde): in the series with MLKL, the MLKL protein levels entry is “did not change”.
Turning to HS-1371, the “cytotoxic effects on chondrocytes” value in the series on chondrocytes is “greater cytotoxic effects on chondrocytes than AZ-628”.
